Results: the Kinase Knowledgebase extract (Sharma et al. 2016)
pIC50: −log10 of the molar value.

Target: PIK3CG (human) (UniProt P48736)
Test: Assessment of PIK3CG Kinase Activity

PIK3CG (human), sequence (P48736 whole entry, looked up): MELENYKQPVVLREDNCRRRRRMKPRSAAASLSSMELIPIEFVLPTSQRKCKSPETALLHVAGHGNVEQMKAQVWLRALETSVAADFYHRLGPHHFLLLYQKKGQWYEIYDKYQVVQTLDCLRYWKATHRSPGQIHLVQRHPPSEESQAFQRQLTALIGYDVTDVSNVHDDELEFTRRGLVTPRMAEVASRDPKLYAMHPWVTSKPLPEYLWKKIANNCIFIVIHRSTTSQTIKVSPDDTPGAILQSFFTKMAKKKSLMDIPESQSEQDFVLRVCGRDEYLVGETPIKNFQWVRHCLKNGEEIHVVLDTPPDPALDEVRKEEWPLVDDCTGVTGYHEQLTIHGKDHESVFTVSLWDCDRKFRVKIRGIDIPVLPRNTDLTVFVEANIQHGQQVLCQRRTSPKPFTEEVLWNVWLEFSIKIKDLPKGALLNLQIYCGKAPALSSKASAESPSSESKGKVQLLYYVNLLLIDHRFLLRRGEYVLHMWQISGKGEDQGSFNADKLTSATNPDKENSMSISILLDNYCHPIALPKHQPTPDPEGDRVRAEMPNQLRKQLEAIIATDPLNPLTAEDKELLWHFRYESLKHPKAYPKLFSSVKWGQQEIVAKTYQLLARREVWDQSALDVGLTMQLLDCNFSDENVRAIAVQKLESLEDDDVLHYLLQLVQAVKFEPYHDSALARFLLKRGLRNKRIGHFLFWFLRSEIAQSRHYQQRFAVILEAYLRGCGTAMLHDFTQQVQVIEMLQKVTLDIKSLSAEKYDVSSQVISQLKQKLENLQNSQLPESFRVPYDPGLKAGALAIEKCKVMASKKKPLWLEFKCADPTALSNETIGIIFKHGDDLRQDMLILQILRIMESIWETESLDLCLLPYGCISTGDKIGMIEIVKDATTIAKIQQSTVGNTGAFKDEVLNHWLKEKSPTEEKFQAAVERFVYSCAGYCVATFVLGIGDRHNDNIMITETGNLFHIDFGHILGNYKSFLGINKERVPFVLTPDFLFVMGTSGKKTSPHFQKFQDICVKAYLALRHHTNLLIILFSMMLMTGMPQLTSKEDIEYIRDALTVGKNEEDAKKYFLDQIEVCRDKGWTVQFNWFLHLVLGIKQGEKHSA

Structure (SMILES) | pIC50
CC(C)(C)OC(=O)CCNC(=O)Nc1nc2c(s1)-c1nc(C(C)(C)C)ncc1CC2 | > 6.10
CC(C)C(=O)Nc1cccc(CNC(=O)Nc2nc3c(s2)-c2nc(-c4ccccc4Cl)ncc2CC3)c1 | > 6.10
CC(C)(C)c1ncc2c(n1)-c1sc(NC(N)=O)nc1CC2 | > 6.10
CN(C)C(=O)Nc1nc2c(s1)-c1nc(-c3ccccc3C(F)(F)F)ncc1CC2 | > 6.10
CCc1cnc(CCNC(=O)Nc2nc3c(s2)-c2nc(-c4ccccc4F)ncc2CC3)o1 | > 6.10
O=C(NCCc1ccc2c(c1)OCCO2)Nc1nc2c(s1)-c1nc(-c3ccccc3Cl)ncc1CC2 | > 6.10
CN(C)C(=O)Nc1nc2c(s1)-c1nc(-c3ccccc3Br)ncc1CC2 | > 6.10
CC(C)c1cnc(CCNC(=O)Nc2nc3c(s2)-c2nc(-c4ccccc4Br)ncc2CC3)o1 | > 6.10
Cn1cc(CNC(=O)Nc2nc3c(s2)-c2nc(-c4ccccc4F)ncc2CC3)cn1 | > 6.10
CC(C)CNC(=O)Nc1nc2c(s1)-c1nc(-c3cccc(F)c3Cl)ncc1CC2 | > 6.10
CCc1cnc(CCNC(=O)Nc2nc3c(s2)-c2nc(-c4ccccc4Br)ncc2CC3)o1 | > 6.10
COc1cccc(CNC(=O)Nc2nc3c(s2)-c2nc(-c4ccccc4Cl)ncc2CC3)c1 | > 6.10
O=C(NCc1cc(C2CC2)n[nH]1)Nc1nc2c(s1)-c1nc(-c3ccccc3C(F)(F)F)ncc1CC2 | > 6.10
CCc1csc(CCNC(=O)Nc2nc3c(s2)-c2nc(-c4ccccc4Cl)ncc2CC3)n1 | > 6.10
Cc1nc2ccccc2n1CC(C)(C)NC(=O)Nc1nc2c(s1)-c1nc(-c3ccccc3Cl)ncc1CC2 | > 6.10
CNC(=O)Nc1nc2c(s1)-c1nc(-c3ccccc3C(F)(F)F)ncc1CC2 | > 6.10
CCc1nnc(CCNC(=O)Nc2nc3c(s2)-c2nc(-c4ccccc4Br)ncc2CC3)o1 | > 6.10
CCc1cnc(CCNC(=O)Nc2nc3c(s2)-c2nc(-c4ccccc4Cl)ncc2CC3)o1 | > 6.10
CN(C)C(=O)Nc1cccc(CNC(=O)Nc2nc3c(s2)-c2nc(-c4ccccc4Cl)ncc2CC3)c1 | > 6.10
CCCn1cnc(CCNC(=O)Nc2nc3c(s2)-c2nc(-c4ccccc4Br)ncc2CC3)c1 | > 6.10

Structure (SMILES) | pIC50
O=C(NCc1cccc(N2CCCCC2)c1)Nc1nc2c(s1)-c1nc(-c3ccccc3Cl)ncc1CC2 | > 6.10
CN(C)C(=O)Nc1nc2c(s1)-c1nc(-c3ccccc3F)ncc1CC2 | > 6.10
COc1cccc(CNC(=O)Nc2nc3c(s2)-c2nc(-c4ccccc4Cl)ncc2CC3)c1OC | > 6.10
CN(C)C(=O)Nc1nc2c(s1)-c1nc(C(C)(C)C)ncc1CC2 | > 6.10
CN(C)S(=O)(=O)Nc1cccc(CNC(=O)Nc2nc3c(s2)-c2nc(-c4ccccc4Cl)ncc2CC3)c1 | > 6.10
CC(C)c1nnc(CCNC(=O)Nc2nc3c(s2)-c2nc(-c4ccccc4F)ncc2CC3)o1 | > 6.10
CC(C)c1nnc(CCNC(=O)Nc2nc3c(s2)-c2nc(-c4ccccc4Br)ncc2CC3)o1 | > 6.10
CN1CCN(Cc2ccc(NC(=O)Nc3nc4c(s3)-c3nc(-c5ccccc5Cl)ncc3CC4)cc2)CC1 | > 6.10
O=C(NCCc1nc(C2CC2)no1)Nc1nc2c(s1)-c1nc(-c3ccccc3Br)ncc1CC2 | > 6.10
O=C(NCCc1nc(C2CC2)no1)Nc1nc2c(s1)-c1nc(-c3ccccc3Cl)ncc1CC2 | > 6.10
CS(=O)(=O)Nc1cccc(CNC(=O)Nc2nc3c(s2)-c2nc(-c4ccccc4Cl)ncc2CC3)c1 | > 6.10
O=C(NCC1CCCN(c2ncccn2)C1)Nc1nc2c(s1)-c1nc(-c3ccccc3Cl)ncc1CC2 (stereo unspecified) | > 6.10
CCNC(=O)Nc1nc2c(s1)-c1nc(-c3ccccc3Br)ncc1CC2 | > 6.10
CC1(C)NC(=O)N(Cc2ccc(CNC(=O)Nc3nc4c(s3)-c3nc(-c5ccccc5Cl)ncc3CC4)cc2)C1=O | > 6.10
NC(=O)Nc1nc2c(s1)-c1nc(-c3ccccc3C(F)(F)F)ncc1CC2 | > 6.10
CC(C)N(C)C(=O)Nc1cccc(CNC(=O)Nc2nc3c(s2)-c2nc(-c4ccccc4Cl)ncc2CC3)c1 | > 6.10
O=C(NCCc1ccccc1)Nc1nc2c(s1)-c1nc(-c3ccccc3Cl)ncc1CC2 | > 6.10
Cn1cc(CNC(=O)Nc2nc3c(s2)-c2nc(-c4ccccc4C(F)(F)F)ncc2CC3)cn1 | > 6.10
N#Cc1cccc(CNC(=O)Nc2nc3c(s2)-c2nc(-c4ccccc4Cl)ncc2CC3)c1 | > 6.10
CCNC(=O)Nc1nc2c(s1)-c1nc(-c3cccc(F)c3Cl)ncc1CC2 | > 6.10

Results, then the compound that gave them:

pIC50 | Structure (SMILES)
> 6.10 | Cn1cc(CCNC(=O)Nc2nc3c(s2)-c2nc(-c4ccccc4Cl)ncc2CC3)cn1
> 6.10 | CN(C)S(=O)(=O)N[C@H]1CCN(C(=O)Nc2nc3c(s2)-c2nc(-c4ccccc4Cl)ncc2CC3)C1
> 6.10 | Cc1nn(C)cc1CNC(=O)Nc1nc2c(s1)-c1nc(-c3ccccc3Cl)ncc1CC2
> 6.10 | CN(Cc1cccc(CNC(=O)Nc2nc3c(s2)-c2nc(-c4ccccc4Cl)ncc2CC3)c1)C(=O)OC(C)(C)C
> 6.10 | CN1CCC(O)C2(CCCN(C(=O)Nc3nc4c(s3)-c3nc(-c5ccccc5Cl)ncc3CC4)C2)C1 (stereo unspecified)
> 6.10 | CC(C)(C)CC(=O)N[C@H]1CCN(C(=O)Nc2nc3c(s2)-c2nc(-c4ccccc4Cl)ncc2CC3)C1
> 6.10 | O=C(Nc1nc2c(s1)-c1nc(-c3ccccc3Cl)ncc1CC2)N1CCC2(CC1)C(=O)NCN2c1ccccc1
> 6.10 | O=C(NCCCN1CCNC1=O)Nc1nc2c(s1)-c1nc(-c3ccccc3Cl)ncc1CC2
> 6.10 | CC(C)CCNC(=O)Nc1nc2c(s1)-c1nc(-c3ccccc3Cl)ncc1CC2
> 6.10 | COC(=O)N[C@@H]1CCN(C(=O)Nc2nc3c(s2)-c2nc(-c4ccccc4Cl)ncc2CC3)C1
> 6.10 | CS(=O)(=O)N[C@@H]1CCN(C(=O)Nc2nc3c(s2)-c2nc(-c4ccccc4Cl)ncc2CC3)C1
> 6.10 | O=C(NCC1CCOCC1)Nc1nc2c(s1)-c1nc(-c3ccccc3Cl)ncc1CC2
> 6.10 | CCN(CC)CCNC(=O)Nc1nc2c(s1)-c1nc(-c3ccccc3Cl)ncc1CC2
> 6.10 | O=C(NCC1CCCCC1)Nc1nc2c(s1)-c1nc(-c3ccccc3Cl)ncc1CC2
> 6.10 | CC(C)(C)OC(=O)N1CCN(c2cccc(NC(=O)Nc3nc4c(s3)-c3nc(-c5ccccc5Cl)ncc3CC4)c2)CC1
> 6.10 | O=C(Nc1nc2c(s1)-c1nc(-c3ccccc3Cl)ncc1CC2)NC1CCCCC1
> 6.10 | COCCN(C)C(=O)Nc1nc2c(s1)-c1nc(-c3ccccc3Cl)ncc1CC2
> 6.10 | COC(=O)CNC(=O)Nc1nc2c(s1)-c1nc(-c3ccccc3Cl)ncc1CC2
> 6.10 | CC(C)NC(=O)CCNC(=O)Nc1nc2c(s1)-c1nc(-c3ccccc3Cl)ncc1CC2
> 6.10 | CC(C)OCCCNC(=O)Nc1nc2c(s1)-c1nc(-c3ccccc3Cl)ncc1CC2
> 6.10 | CC(=O)N[C@@H]1CCN(C(=O)Nc2nc3c(s2)-c2nc(-c4ccccc4Cl)ncc2CC3)C1
> 6.10 | CC(C)(C)OC(=O)N1CCC[C@@H]1CNC(=O)Nc1nc2c(s1)-c1nc(-c3ccccc3Cl)ncc1CC2
> 6.10 | CC(C)(C)OC(=O)N1CCN(c2ccc(NC(=O)Nc3nc4c(s3)-c3nc(-c5ccccc5Cl)ncc3CC4)cc2)CC1
> 6.10 | CC(C)COC(=O)N[C@H]1CCN(C(=O)Nc2nc3c(s2)-c2nc(-c4ccccc4Cl)ncc2CC3)C1
> 6.10 | O=C(Nc1nc2c(s1)-c1nc(-c3ccccc3Cl)ncc1CC2)N1CC[C@H](NS(=O)(=O)N2CCOCC2)C1
> 6.10 | CC(C)NC(=O)Nc1nc2c(s1)-c1nc(-c3ccccc3Cl)ncc1CC2

pIC50 | Structure (SMILES)
> 6.10 | Nc1c(Br)cc(OCC2CCN(C(=O)Nc3nc4c(s3)-c3nc(-c5ccccc5Cl)ncc3CC4)C2)cc1Br (stereo unspecified)
> 6.10 | O=C(NCc1cccc(NC(=O)N2CCOCC2)c1)Nc1nc2c(s1)-c1nc(-c3ccccc3Cl)ncc1CC2
> 6.10 | COC(=O)N[C@H]1CCN(C(=O)Nc2nc3c(s2)-c2nc(-c4ccccc4Cl)ncc2CC3)C1
> 6.10 | CC(C)(C)OC(=O)CCNC(=O)Nc1nc2c(s1)-c1nc(-c3ccccc3Br)ncc1CC2
> 6.10 | CC(C)CN(C)C(=O)CCNC(=O)Nc1nc2c(s1)-c1nc(-c3ccccc3Cl)ncc1CC2
> 6.10 | CC(C)CCNC(=O)CCNC(=O)Nc1nc2c(s1)-c1nc(-c3ccccc3Cl)ncc1CC2
> 6.10 | CC(C)OC(=O)N[C@@H]1CCN(C(=O)Nc2nc3c(s2)-c2nc(-c4ccccc4Cl)ncc2CC3)C1
> 6.10 | CC(C)(C)OC(=O)CC1(O)CCN(C(=O)Nc2nc3c(s2)-c2nc(-c4ccccc4Cl)ncc2CC3)CC1
> 6.10 | CC(C)(C)OC(=O)NCc1ccccc1NC(=O)Nc1nc2c(s1)-c1nc(-c3ccccc3Cl)ncc1CC2
> 6.10 | Cn1cc(CNC(=O)Nc2nc3c(s2)-c2nc(-c4ccccc4Cl)ncc2CC3)cn1
> 6.10 | O=C(Nc1nc2c(s1)-c1nc(-c3ccccc3Cl)ncc1CC2)N1CCC(N2Cc3ccccc3NC2=O)C1 (stereo unspecified)
> 6.10 | CC(C)C(=O)N[C@@H]1CCN(C(=O)Nc2nc3c(s2)-c2nc(-c4ccccc4Cl)ncc2CC3)C1
> 6.10 | O=C(NCCN1CCOCC1)Nc1nc2c(s1)-c1nc(-c3ccccc3Cl)ncc1CC2
> 6.10 | CN(C)S(=O)(=O)N[C@@H]1CCN(C(=O)Nc2nc3c(s2)-c2nc(-c4ccccc4Cl)ncc2CC3)C1
> 6.10 | CCn1cc(CNC(=O)Nc2nc3c(s2)-c2nc(-c4ccccc4Cl)ncc2CC3)cn1
> 6.10 | CC(C)(C)c1cc(CNC(=O)Nc2nc3c(s2)-c2nc(-c4ccccc4Cl)ncc2CC3)[nH]n1
> 6.10 | CC(C)(C)OC(=O)NC1CCN(C(=O)Nc2nc3c(s2)-c2nc(-c4ccccc4Cl)ncc2CC3)C1 (stereo unspecified)
> 6.10 | COCCCNC(=O)Nc1nc2c(s1)-c1nc(-c3ccccc3Cl)ncc1CC2
> 6.10 | O=C(Nc1nc2c(s1)-c1nc(-c3ccccc3Cl)ncc1CC2)N1CC[C@H](NC(=O)C(F)(F)F)C1
> 6.10 | CC(C)(CNc1ncccn1)NC(=O)Nc1nc2c(s1)-c1nc(-c3ccccc3Cl)ncc1CC2
> 6.10 | O=C(NCc1ccn[nH]1)Nc1nc2c(s1)-c1nc(-c3ccccc3Cl)ncc1CC2
> 6.10 | O=C(Nc1nc2c(s1)-c1nc(-c3ccccc3Cl)ncc1CC2)N1CCC(c2c[nH]c3ccccc23)CC1
> 6.10 | O=C(N[C@H]1CCN(C(=O)Nc2nc3c(s2)-c2nc(-c4ccccc4Cl)ncc2CC3)C1)C1CC1
> 6.10 | O=C(Nc1nc2c(s1)-c1nc(-c3ccccc3Cl)ncc1CC2)N1CCCC(c2ccccc2O)C1 (stereo unspecified)
> 6.10 | CN(C)C(=O)CNC(=O)Nc1nc2c(s1)-c1nc(-c3ccccc3Cl)ncc1CC2
